Test results taken from patent US8450354B2, “Substituted imidazo[1,2-b]pyridazine derivatives, pharmaceutical compositions, and methods of use as β-secretase inhibitors” (High Point Pharmaceuticals, LLC, priority 2010, dated 2013).

Experiments:
[1] = system: Aβ1-40 secreted from HEK293 cells stably expressing wildtype human APP695 protein (HEK-APPwt cells); proteolytic activity of BACE; test: Aβ Cell Based Assay (Aβ1-40 secretion, ELISA); conditions: 6 hours incubation, reduction of Aβ1-40 secretion, asterisk = mean
Experimental: (§1) Aβ Cell Based Assay Procedure
(§2) In the following assay, the proteolytic activity of BACE in cells exposed to varying concentrations of a compound of interest is measured by observing the amount of Aβ1-40 secreted from HEK293 cells (Human Embryonic Kidney epithelial cell line) stably expressing wildtype human APP695 protein (HEK-APPwt cells).
(§3) HEK-APPwt cells were grown in high glucose DMEM (Dulbecco's Modified Eagles Medium SIGMA Cat. #D5796) supplemented with 25 mM HEPES (4-(2-hydroxyethyl)-1-piperazineethanesulfonic acid) (pH 7.4) (Invitrogen Cat. #15630-114), 0.1 mM NEAA (Non-essential Amino Acids) (BioWhittaker Cat. #13-114E), 10% fetal bovine serum (SIGMA Cat. #F4135) and 250 μg/mL hygromycin (Invitrogen Cat. #10687-010) in T-225 flasks at 37° C. with 5% CO2 and humidity control.
(§4) Test compounds were initially prepared in DMSO and diluted with DMEM media containing 2% FBS (Fetal bovine serum). Ten standard compound solutions were prepared having a range of concentrations. The standard compound solutions were used to determine the EC50 of the test compound. The range of concentrations chosen may depend on the compound's predicted potency.
(§5) To prepare cells for the assay, a flask containing HEK-APPwt cells were trypsinized briefly (1 mL trypsin), and once the cells detached, 4 mL of 10% FBS-DMEM was added to the flask. The detached cells were centrifuged at 900 rpm for 5 min to form a pellet.
(§6) The HEK-APPwt cell pellet was re-suspended with 10 mL DMEM media containing 2% FBS. 80 μL of the cell suspension was added to each well of a 96-well cell culture plate to give 100×10^4 cells/ml. 10 μL of a standard compound solution was added to each well of the 96-well cell culture plate followed by 10 μL of Alamar blue solution. The cells were incubated at 37° C. in a 5% CO2 incubator for 6 hours.
(§7) At the end of the incubation, the plates were removed from incubator, and the supernatant was collected. Aβ1-40 concentration in the medium was measured by using a commercial Aβ1-X ELISA kit (IBL, Japan Cat. #27729). Briefly, the ELISA plates were coated with an anti-human Aβ (N)(82E1) mouse IgG monoclonal antibody. A horseradish peroxidase conjugated anti-human Aβ11-28 mouse IgG monoclonal antibody was used for detection. The cell culture supernatant was diluted with EIA buffer+protease inhibitors (kit buffer containing protease inhibitors (1 mL PI/30 mL buffer)). A 100 μL aliquot of the diluted supernatant was added to each well of the ELISA plate and incubated for 6 hrs at 4° C. The ELISA plate was washed 8 times with phosphate buffered saline (PBS) containing 0.05% TWEEN 20.
(§8) A 100 μL of detection antibody was then added and incubated for 1 hour at 4° C. The plate was washed 8 times with PBS buffer containing 0.05% Tween 20 followed by addition of 100 μL of the chromogen tetramethylbenzidine (TMB). The plate was incubated in the dark at room temperature for about 30 min and a stop solution (1N H2SO4) was added.
(§9) The intensity of the color developed was measured at 450 nm. The optical density at 450 nm (OD450) is proportional to the concentration of human Aβ1-40 secreted by the cell. As a reference, N—[N-(3,5-difluorophenacetyl-L-alanyl)]—S-phenylglycine t-butyl ester (DAPT, a γ-secretase inhibitor) was used to indicate 100% inhibition of […]. Thus, the assay measures the ability of a compound of interest to reduce Aβ1-40 secretion. Compound potency is reported in Table 3 as the EC50 by calculating the percent inhibition at all concentration levels and the data were fit with non-linear curve fitting algorithm using GraphPad Prism.

[2] = biological target: T1, BACE-1 enzyme (Homo sapiens, UniProt P56817); test: BACE Fluorescence Resonance Energy Transfer (FRET) Assay; assay type: biochemical; conditions: pH 4-4.5, 30 min pre-incubation, about 1.5 hours reaction, asterisk = mean
T1 construct: purchased R & D Systems 931AS
T1 sequence (P56817 46-457 limits assumed): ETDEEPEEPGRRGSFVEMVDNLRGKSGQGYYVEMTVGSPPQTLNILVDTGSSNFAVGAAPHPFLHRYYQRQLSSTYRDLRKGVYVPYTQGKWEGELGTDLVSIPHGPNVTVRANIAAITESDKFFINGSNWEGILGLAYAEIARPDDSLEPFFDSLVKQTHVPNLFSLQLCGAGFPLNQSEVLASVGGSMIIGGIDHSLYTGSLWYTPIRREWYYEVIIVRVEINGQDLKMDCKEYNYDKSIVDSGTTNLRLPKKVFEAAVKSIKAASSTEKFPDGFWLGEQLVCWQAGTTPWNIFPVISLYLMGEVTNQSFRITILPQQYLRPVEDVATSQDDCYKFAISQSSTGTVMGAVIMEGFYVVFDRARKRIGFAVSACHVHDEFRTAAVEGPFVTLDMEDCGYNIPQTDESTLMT
Experimental: BACE Fluorescence Resonance Energy Transfer (FRET) Assay
In the following assay, the proteolytic activity of BACE is measured by observing cleavage of a fluorescent group from a peptide substrate containing a rhodamine fluorescent donor and a quenching acceptor.
The inhibitory activity of compounds of Formula (I) may be compared to a statine derived control inhibitor STA200 (MP Biomedical Cat. #STA-200). The cleavage reaction occurs when a BACE-1 substrate (Invitrogen, Cat. #P2986) was added to a reaction mixture containing BACE-1 enzyme (R & D Systems, Cat. #931AS) and allowed to proceed for about 1.5 hours. Fluorescence, used as a marker of BACE activity, is monitored using 540 nm excitation and 585 nm emission wavelengths (Envision, Perkin Elmer).
A typical assay reaction contains BACE-1 enzyme-in assay buffer (50 mM sodium acetate, pH 4-4.5, 0.01% CHAPS (3-[(3-Cholamidopropyl)dimethylammonio]-1-propanesulfonate), 0.0125% TritonX-100, 0.006% EDTA) which is pre-incubated for 30 minutes with test compound in 7.5% DMSO. The reaction is initiated with the addition of BACE-1 substrate in assay buffer and allowed to proceed for about 1.5 hours at room temperature. Assays are conducted in black 384-well microtiter plates and scanned at room temperature using 540 nm excitation and 585 nm emission wavelengths.
In some instances, the percent inhibition at a given concentration is reported instead of the IC50.

[3] = Aβ Cell Based Assay (Aβ1-40 secretion, ELISA); design: species or system human; conditions: Homo sapiens, HEK293; HEK-APPwt cells, 6 hours incubation, reduction of Aβ1-40 secretion; asterisk = mean
Experimental: as §1, §2, §3, §4, §5, §6, §7, §8, §9

SMILES	EC50 [1] [µM]	IC50 [2] [µM]	EC50 [3] [µM]
O=C(Nc1nc2cc(-c3cccc(OC(F)(F)F)c3)ccc2[nH]1)c1cn2nc(OCCO)ccc2n1 [Example 143, 6-(2-Hydroxy-ethoxy)-imidazol[1,2-b]pyridazine-2-carboxylic acid [5-(3-trifluoromethoxy-phenyl)-1H-benzoimidazol-2-yl]-amide]	1.07	0.172	–
CCCC[C@H](O)COc1ccc2nc(C(=O)Nc3nc4cc(-c5cc(F)cc(Cl)c5)ccc4[nH]3)cn2n1 [Example 127]	–	0.163	0.71
CN(C)C(=O)COc1ccc2nc(C(=O)Nc3nc4cc(-c5cccc(C(F)(F)F)c5)ccc4[nH]3)cn2n1 [Example 141]	–	0.172	1.3
CC1(C)CCC(c2ccc3[nH]c(NC(=O)c4cn5nc(N6CC[C@@H](O)C6)ccc5n4)nc3c2)CC1 [Example 85]	–	0.089	2.27
CC1(C)CCC(c2ccc3[nH]c(NC(=O)c4cn5nc(N6CCC(O)CC6)ccc5n4)nc3c2)CC1 [Example 83]	–	0.18	1.47
CC1(COc2ccc3nc(C(=O)Nc4nc5cc(-c6cc(F)cc(Cl)c6)ccc5[nH]4)cn3n2)COC1 [Example 98]	–	0.248	0.44
CC1(C)CCC(c2ccc3[nH]c(NC(=O)c4cn5nc(N6CCCC(O)C6)ccc5n4)nc3c2)CC1 (stereo not drawn) [Example 84]	–	0.191	1.71
C[C@@H](O)[C@@H](C)Oc1ccc2nc(C(=O)Nc3nc4cc(-c5cccc(C(F)(F)F)c5)ccc4[nH]3)cn2n1 [Example 100]	–	0.26	0.7
O=C(Nc1nc2cc(-c3cc(F)cc(Cl)c3)ccc2[nH]1)c1cn2nc(OCCCO)ccc2n1 [Example 113]	–	0.528	1.71
O=C(Nc1nc2cc(-c3cc(F)cc(Cl)c3)ccc2[nH]1)c1cn2nc(N3CCC(O)CC3)ccc2n1 [Example 142, 6-(4-Hydroxy-piperidin-1-yl)-imidazo[1,2-b]pyridazine-2-carboxylic acid [5-(3-chloro-5-fluoro-phenyl)-1H-benzoimidazol-2-yl]-amide]	–	0.134	0.63
CCC[C@@H](O)COc1ccc2nc(C(=O)Nc3nc4cc(-c5cc(F)cc(Cl)c5)ccc4[nH]3)cn2n1 [Example 124]	–	0.419	0.3
C[C@H](O)COc1ccc2nc(C(=O)Nc3nc4cc(-c5ccc(C(F)(F)F)c(Cl)c5)ccc4[nH]3)cn2n1 [Example 123, 6-((S)-2-Hydroxy-propoxy)-imidazo[1,2-b]pyridazine-2-carboxylic acid [5-(3-chloro-4-trifluoromethyl-phenyl)-1H-benzoimidazol-2-yl]-amide]	–	0.372	0.12
CN1CCN(CCOc2ccc3nc(C(=O)Nc4nc5cc(-c6cccc(C(F)(F)F)c6)ccc5[nH]4)cn3n2)CC1 [Example 41]	–	0.232	2.62
COC[C@H](COc1ccc2nc(C(=O)Nc3nc4cc(-c5cccc(C(F)(F)F)c5)ccc4[nH]3)cn2n1)OC [Example 135]	–	0.117	0.45
O=C(Nc1nc2cc(-c3cc(F)cc(Cl)c3)ccc2[nH]1)c1cn2nc(OC3COC4C(O)COC34)ccc2n1 (stereo not drawn) [Example 133]	–	0.262	0.56
CN1CCN(CCOc2ccc3nc(C(=O)Nc4nc5cc(-c6cccc(OC(F)(F)F)c6)ccc5[nH]4)cn3n2)CC1 [Example 35]	–	0.315	3.13
O=C(Nc1nc2cc(-c3cc(F)cc(Cl)c3)ccc2[nH]1)c1cn2nc(OCC3(CO)CC3)ccc2n1 [Example 104]	–	0.277	0.33
O=C(Nc1nc2cc(-c3cccc(OC(F)(F)F)c3)ccc2[nH]1)c1cn2nc(OCCn3cncn3)ccc2n1 [Example 29]	–	0.314	2.58
CC1(C)CCC(c2ccc3[nH]c(NC(=O)c4cn5nc(N6CC[C@H](O)C6)ccc5n4)nc3c2)CC1 [Example 86]	–	0.123	2.46
O=C(Nc1nc2cc(-c3cccc(Cl)c3)ccc2[nH]1)c1cn2nc(OCCO)ccc2n1 [Example 144, 6-(2-hydroxy-ethoxy)-imidazo[1,2-b]pyridazine-2-carboxylic acid [5-(3-chloro-phenyl)-1H-benzoimidazol-2-yl]-amide]	–	0.128	0.94
O=C(Nc1nc2cc(-c3ccc(Cl)c(C(F)(F)F)c3)ccc2[nH]1)c1cn2nc(OCCN3CCOCC3)ccc2n1 [Example 64]	–	0.22	0.97
O=C(Nc1nc2cc(-c3cc(F)cc(Cl)c3)ccc2[nH]1)c1cn2nc(OCCCCO)ccc2n1 [Example 130]	–	0.169	0.23
O=C(Nc1nc2cc(-c3cccc(C(F)(F)F)c3)ccc2[nH]1)c1cn2nc(OCCN3CCCCC3)ccc2n1 [Example 46]	–	0.248	3.81
CN1CC[C@H](Oc2ccc3nc(C(=O)Nc4nc5cc(-c6cc(F)cc(Cl)c6)ccc5[nH]4)cn3n2)C1 [Example 69]	–	0.3	2.93
O=C(Nc1nc2cc(-c3cc(F)cc(Cl)c3)ccc2[nH]1)c1cn2nc(OCC3(CO)CCC3)ccc2n1 [Example 132]	–	0.344	0.47
CC[C@H](O)COc1ccc2nc(C(=O)Nc3nc4cc(-c5cc(F)cc(Cl)c5)ccc4[nH]3)cn2n1 [Example 106]	–	0.139	0.86
CC(C)(O)CCOc1ccc2nc(C(=O)Nc3nc4cc(-c5cc(F)cc(Cl)c5)ccc4[nH]3)cn2n1 [Example 114]	–	0.279	0.33
